Literature values as cited in patent US20100203146A1, “INTERMITTENT DOSING STRATEGY FOR TREATING RHEUMATOID ARTHRITIS” (Callisto Pharmaceuticals, Inc., priority 2009, published 2010).

How the values were obtained:
arthritis patients = conditions: after a single dosage of 90 mg
RA patients = conditions: at the administered doses
patients with RA = conditions: often observed
[1] = after 14 or 28 days of daily oral dosing

For `CCCC1(CCC)CCC2(CCN(CCCN(CC)CC)C2)CC1` [Atiprimod, 2-(3-Diethylaminopropyl)-8,8-dipropyl-2-azaspiro[4,5]decane], the “area under the concentration-time curve (AUC)” value [1] is given as “lower than expected”, the “maximum concentration (Cmax)” value [1] is given as “lower than expected” and the half-life (in man) is given as roughly 60 days. For the same compound, the patient-reported relief (arthritis patients) was “feeling better”, the dose-limiting toxicity (RA patients) was “no observed dose-limiting toxicity” and the tolerability (RA patients; on drug for as long as one year) was “well-tolerated”.
For `CN(Cc1cnc2nc(N)nc(N)c2n1)c1ccc(C(=O)N[C@@H](CCC(=O)O)C(=O)O)cc1` [Methotrexate], the “response (improvement)” value (patients with RA) is given as “less than 50%”.
